Reference: US8952024B2, “Herbicidal pyrimidone derivatives” (E I du Pont de Nemours and Company, priority 2009, dated 2015)

Experiments:
Assay in all cases: Test B pre-/postemergence plant response
Format in all cases: in vivo
[1] = test system: blackgrass (Alopecurus myosuroides)
How it was run: (§1)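 Greenhouse herbicide screen. Pre- and postemergence (1- to 4-leaf) spray of compound in solvent/surfactant mixture; loam–sand soil for pre, peat/vermiculite medium for post. Visual control rating 0–100 at 13 to 15 days after treatment.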

[2] = test system: ragweed (common ragweed, Ambrosia elatior)
How it was run: as §1

[3] = test system: large crabgrass (Digitaria sanguinalis)
How it was run: as §1

[4] = test system: corn (Zea mays)
How it was run: as §1

[5] = test system: yellow nutsedge (Cyperus esculentus)
How it was run: as §1

[6] = test system: woolly cupgrass (Eriochloa villosa)
How it was run: as §1

[7] = test system: johnsongrass (Sorghum halepense)
How it was run: as §1

[8] = test system: Italian ryegrass (Lolium multiflorum)
How it was run: as §1

[9] = test system: lambsquarters (Chenopodium album)
How it was run: as §1

[10] = test system: velvetleaf (Abutilon theophrasti)
How it was run: as §1

[11] = test system: goosegrass (Eleusine indica)
How it was run: as §1

[12] = test system: kochia (Kochia scoparia)
How it was run: as §1

[13] = test system: bermudagrass (Cynodon dactylon)
How it was run: as §1

[14] = test system: green foxtail (Setaria viridis)
How it was run: as §1

[15] = test system: downy bromegrass (Bromus tectorum)
How it was run: as §1

[16] = test system: Surinam grass (Brachiaria decumbens)
How it was run: as §1

[17] = test system: giant foxtail (Setaria faberii)
How it was run: as §1

[18] = 62 g ai/ha, postemergence, 0 is no effect, 100 is complete control, 13 to 15 days

SMILES: COCCn1c(-c2ccsc2)ncc(C(=O)C2=C(O)CCCC2=O)c1=O [Compound 97, 5-[(2-hydroxy-6-oxo-1-cyclohexen-1-yl)carbonyl]-3-(2-methoxyethyl)-2-(3-thienyl)-4(3H)-pyrimidinone]
- Blackgrass plant response rating (0 to 100 scale) [1, 18]: 20
- pest or weed control at 31 g/ha ([1]; Alopecurus myosuroides, post-emergence, 360 h, 31 g ai/ha, postemergence, scale 0 to 100, 0 is no effect, 100 is complete control, read-out: Plant response rating, Blackgrass): 5%
- pest or weed control at 125 g/ha ([1]; Alopecurus myosuroides, post-emergence, 360 h, Postemergence, 125 g ai/ha, visual rating after 13 to 15 days, scale 0 (no effect) to 100 (complete control)): 30%
- pest or weed control at 250 g/ha ([1]; Alopecurus myosuroides, post-emergence, 360 h, Postemergence, 250 g ai/ha, scale 0 to 100 (0 no effect, 100 complete control), read-out: Plant response rating, Blackgrass): 50%
- Ragweed plant response rating (0 to 100 scale) [2, 18]: 98
- pest or weed control at 31 g/ha ([2]; Ambrosia artemisiifolia, post-emergence, 360 h, 31 g ai/ha, postemergence, scale 0 to 100, 0 is no effect, 100 is complete control, read-out: Plant response rating, Ragweed): 85%
- pest or weed control at 250 g/ha ([2]; Ambrosia artemisiifolia, post-emergence, 360 h, Postemergence, 250 g ai/ha, scale 0 to 100 (0 no effect, 100 complete control), read-out: Plant response rating, Ragweed): 100%
- Crabgrass, Large plant response rating (0 to 100 scale) [3, 18]: 80
- pest or weed control at 31 g/ha ([3]; Digitaria sanguinalis, post-emergence, 31 g ai/ha, postemergence, scale 0 to 100, 0 is no effect, 100 is complete control, read-out: Plant response rating, Crabgrass, Large): 75%
- pest or weed control at 125 g/ha ([3]; Digitaria sanguinalis, post-emergence, Postemergence, 125 g ai/ha, visual rating after 13 to 15 days, scale 0 (no effect) to 100 (complete control)): 85%
- pest or weed control at 250 g/ha ([3]; Digitaria sanguinalis, post-emergence, Postemergence, 250 g ai/ha, scale 0 to 100 (0 no effect, 100 complete control), read-out: Plant response rating, Crabgrass, Large): 95%
- Corn plant response rating (0 to 100 scale) [4, 18]: 40
- Corn plant response rating (crop injury, 0 = no effect, 100 = complete kill) at 31 g/ha ([4]; Zea mays, post-emergence, 31 g ai/ha, postemergence, scale 0 to 100, 0 is no effect, 100 is complete control): 20%
- Corn plant response rating (crop injury, 0 = no effect, 100 = complete kill) at 125 g/ha ([4]; Zea mays, post-emergence, Postemergence, 125 g ai/ha, visual rating after 13 to 15 days, scale 0 (no effect) to 100 (complete control)): 60%
- Corn plant response rating (crop injury, 0 = no effect, 100 = complete kill) at 250 g/ha ([4]; Zea mays, post-emergence, Postemergence, 250 g ai/ha, scale 0 to 100 (0 no effect, 100 complete control)): 75%
- Nutsedge, Yellow plant response rating (0 to 100 scale) [5, 18]: 75
- pest or weed control at 31 g/ha ([5]; Cyperus, post-emergence, 31 g ai/ha, postemergence, scale 0 to 100, 0 is no effect, 100 is complete control, read-out: Plant response rating, Nutsedge, Yellow): 75%
- pest or weed control at 250 g/ha ([5]; Cyperus, post-emergence, Postemergence, 250 g ai/ha, scale 0 to 100 (0 no effect, 100 complete control), read-out: Plant response rating, Nutsedge, Yellow): 80%
- Cupgrass, Woolly plant response rating (0 to 100 scale) [6, 18]: 60
- pest or weed control at 31 g/ha ([6]; Eriochloa villosa, post-emergence, 31 g ai/ha, postemergence, scale 0 to 100, 0 is no effect, 100 is complete control, read-out: Plant response rating, Cupgrass, Woolly): 55%
- pest or weed control at 125 g/ha ([6]; Eriochloa villosa, post-emergence, Postemergence, 125 g ai/ha, visual rating after 13 to 15 days, scale 0 (no effect) to 100 (complete control)): 70%
- pest or weed control at 250 g/ha ([6]; Eriochloa villosa, post-emergence, Postemergence, 250 g ai/ha, scale 0 to 100 (0 no effect, 100 complete control), read-out: Plant response rating, Cupgrass, Woolly): 75%
- Johnsongrass plant response rating (0 to 100 scale) [7, 18]: 55
- pest or weed control at 31 g/ha ([7]; Sorghum halepense, post-emergence, 31 g ai/ha, postemergence, scale 0 to 100, 0 is no effect, 100 is complete control, read-out: Plant response rating, Johnsongrass): 15%
- pest or weed control at 250 g/ha ([7]; Sorghum halepense, post-emergence, Postemergence, 250 g ai/ha, scale 0 to 100 (0 no effect, 100 complete control), read-out: Plant response rating, Johnsongrass): 85%
- Ryegrass, Italian plant response rating (0 to 100 scale) [8, 18]: 0
- pest or weed control at 31 g/ha ([8]; Lolium multiflorum, post-emergence, 31 g ai/ha, postemergence, scale 0 to 100, 0 is no effect, 100 is complete control, read-out: Plant response rating, Ryegrass, Italian): 0%
- pest or weed control at 250 g/ha ([8]; Lolium multiflorum, post-emergence, Postemergence, 250 g ai/ha, scale 0 to 100 (0 no effect, 100 complete control), read-out: Plant response rating, Ryegrass, Italian): 5%
- Lambsquarters plant response rating (0 to 100 scale) [9, 18]: 100
- pest or weed control at 31 g/ha ([9]; Chenopodium album, post-emergence, 31 g ai/ha, postemergence, scale 0 to 100, 0 is no effect, 100 is complete control, read-out: Plant response rating, Lambsquarters): 90%
- pest or weed control at 250 g/ha ([9]; Chenopodium album, post-emergence, Postemergence, 250 g ai/ha, scale 0 to 100 (0 no effect, 100 complete control), read-out: Plant response rating, Lambsquarters): 100%
- Velvetleaf plant response rating (0 to 100 scale) [10, 18]: 100
- pest or weed control at 31 g/ha ([10]; Abutilon theophrasti, post-emergence, 360 h, 31 g ai/ha, postemergence, scale 0 to 100, 0 is no effect, 100 is complete control, read-out: Plant response rating, Velvetleaf): 100%
- pest or weed control at 250 g/ha ([10]; Abutilon theophrasti, post-emergence, 360 h, Postemergence, 250 g ai/ha, scale 0 to 100 (0 no effect, 100 complete control), read-out: Plant response rating, Velvetleaf): 100%
- Goosegrass plant response rating (0 to 100 scale) [11, 18]: 70
- pest or weed control at 31 g/ha ([11]; Eleusine indica, post-emergence, 31 g ai/ha, postemergence, scale 0 to 100, 0 is no effect, 100 is complete control, read-out: Plant response rating, Goosegrass): 60%
- pest or weed control at 250 g/ha ([11]; Eleusine indica, post-emergence, Postemergence, 250 g ai/ha, scale 0 to 100 (0 no effect, 100 complete control), read-out: Plant response rating, Goosegrass): 98%
- Kochia plant response rating (0 to 100 scale) [12, 18]: 90
- pest or weed control at 31 g/ha ([12]; Bassia scoparia, post-emergence, 31 g ai/ha, postemergence, scale 0 to 100, 0 is no effect, 100 is complete control, read-out: Plant response rating, Kochia): 65%
- pest or weed control at 250 g/ha ([12]; Bassia scoparia, post-emergence, Postemergence, 250 g ai/ha, scale 0 to 100 (0 no effect, 100 complete control), read-out: Plant response rating, Kochia): 100%
- Bermudagrass plant response rating (0 to 100 scale) [13, 18]: 95
- pest or weed control at 31 g/ha ([13]; Cynodon dactylon, post-emergence, 31 g ai/ha, postemergence, scale 0 to 100, 0 is no effect, 100 is complete control, read-out: Plant response rating, Bermudagrass): 95%
- pest or weed control at 125 g/ha ([13]; Cynodon dactylon, post-emergence, Postemergence, 125 g ai/ha, visual rating after 13 to 15 days, scale 0 (no effect) to 100 (complete control)): 95%
- pest or weed control at 250 g/ha ([13]; Cynodon dactylon, post-emergence, Postemergence, 250 g ai/ha, scale 0 to 100 (0 no effect, 100 complete control), read-out: Plant response rating, Bermudagrass): 98%
- Foxtail, Green plant response rating (0 to 100 scale) [14, 18]: 85
- pest or weed control at 31 g/ha ([14]; Setaria viridis, post-emergence, 31 g ai/ha, postemergence, scale 0 to 100, 0 is no effect, 100 is complete control, read-out: Plant response rating, Foxtail, Green): 40%
- pest or weed control at 250 g/ha ([14]; Setaria viridis, post-emergence, Postemergence, 250 g ai/ha, scale 0 to 100 (0 no effect, 100 complete control), read-out: Plant response rating, Foxtail, Green): 95%
- Bromegrass, Downy plant response rating (0 to 100 scale) [15, 18]: 0
- pest or weed control at 31 g/ha ([15]; Bromus tectorum, post-emergence, 31 g ai/ha, postemergence, scale 0 to 100, 0 is no effect, 100 is complete control, read-out: Plant response rating, Bromegrass, Downy): 0%
- pest or weed control at 125 g/ha ([15]; Bromus tectorum, post-emergence, Postemergence, 125 g ai/ha, visual rating after 13 to 15 days, scale 0 (no effect) to 100 (complete control)): 5%
- pest or weed control at 250 g/ha ([15]; Bromus tectorum, post-emergence, Postemergence, 250 g ai/ha, scale 0 to 100 (0 no effect, 100 complete control), read-out: Plant response rating, Bromegrass, Downy): 10%
- Surinam Grass plant response rating (0 to 100 scale) [16, 18]: 75
- pest or weed control at 31 g/ha ([16]; Urochloa decumbens, post-emergence, 31 g ai/ha, postemergence, scale 0 to 100, 0 is no effect, 100 is complete control, read-out: Plant response rating, Surinam Grass): 65%
- pest or weed control at 250 g/ha ([16]; Urochloa decumbens, post-emergence, Postemergence, 250 g ai/ha, scale 0 to 100 (0 no effect, 100 complete control), read-out: Plant response rating, Surinam Grass): 85%
- Foxtail, Giant plant response rating (0 to 100 scale) [17, 18]: 75
- pest or weed control at 31 g/ha ([17]; Setaria faberi, post-emergence, 31 g ai/ha, postemergence, scale 0 to 100, 0 is no effect, 100 is complete control, read-out: Plant response rating, Foxtail, Giant): 60%
- pest or weed control at 250 g/ha ([17]; Setaria faberi, post-emergence, Postemergence, 250 g ai/ha, scale 0 to 100 (0 no effect, 100 complete control), read-out: Plant response rating, Foxtail, Giant): 90%
